One test has as its system P388. As to the kind of experiment: Cytotoxicity against mouse P388 cells at 10 uM/L. Format: functional. Particulars: read-out: GI.
In a further test the test system is A549. As to the kind of experiment: Cytotoxicity against human A549 cells at 10 uM/L. Format: functional. Particulars: read-out: GI.

With `C=C1C(=O)O[C@H]2C/C(C)=C/CC/C(C)=C/CC/C(CO)=C/C[C@H]12` [3-DEHYDROXYLPRESINULAROLIDE B], the inhibition of growth at 10 µM with P388 came out at 100%; with A549, 95.7%.

On to `C=C1C(=O)O[C@@H]2[C@@H]1C/C=C(\CO)CC/C=C(\C)CC/C=C(\C)[C@H]2O` [PRESINULAROLIDE B], for which the inhibition of growth at 10 µM in the test on A549 came to 64%.

For `C=C1C(=O)O[C@@H]2[C@@H]1C[C@H]1O[C@]1(CO)CC/C=C(\C)CC/C=C(\C)[C@H]2O` [SINULAROLIDE B], the inhibition of growth at 10 µM in the test on P388 was determined as 100%.

In the case of `C=C1C(=O)O[C@@H]2[C@@H]1C[C@H]1O[C@]1(CO)CC/C=C(\C)CC/C=C(\C)[C@@H]2O` [SINULAROLIDE C], the inhibition of growth at 10 µM with P388 is 63.8%.
